Reference: article PMC6073568, “Efficient Lead Finding, Activity Enhancement and Preliminary Selectivity Control of Nuclear Receptor Ligands Bearing a Phenanthridinone Skeleton” (International Journal of Molecular Sciences, 2018)

Legend:
PR = target: T1, PR (Homo sapiens, UniProt P06401); details: alkaline phosphatase, T47D cells, progesterone 1 nM; read-out: PR antagonistic activity (IC50); cited from earlier work
T1 sequence (P06401 1-933): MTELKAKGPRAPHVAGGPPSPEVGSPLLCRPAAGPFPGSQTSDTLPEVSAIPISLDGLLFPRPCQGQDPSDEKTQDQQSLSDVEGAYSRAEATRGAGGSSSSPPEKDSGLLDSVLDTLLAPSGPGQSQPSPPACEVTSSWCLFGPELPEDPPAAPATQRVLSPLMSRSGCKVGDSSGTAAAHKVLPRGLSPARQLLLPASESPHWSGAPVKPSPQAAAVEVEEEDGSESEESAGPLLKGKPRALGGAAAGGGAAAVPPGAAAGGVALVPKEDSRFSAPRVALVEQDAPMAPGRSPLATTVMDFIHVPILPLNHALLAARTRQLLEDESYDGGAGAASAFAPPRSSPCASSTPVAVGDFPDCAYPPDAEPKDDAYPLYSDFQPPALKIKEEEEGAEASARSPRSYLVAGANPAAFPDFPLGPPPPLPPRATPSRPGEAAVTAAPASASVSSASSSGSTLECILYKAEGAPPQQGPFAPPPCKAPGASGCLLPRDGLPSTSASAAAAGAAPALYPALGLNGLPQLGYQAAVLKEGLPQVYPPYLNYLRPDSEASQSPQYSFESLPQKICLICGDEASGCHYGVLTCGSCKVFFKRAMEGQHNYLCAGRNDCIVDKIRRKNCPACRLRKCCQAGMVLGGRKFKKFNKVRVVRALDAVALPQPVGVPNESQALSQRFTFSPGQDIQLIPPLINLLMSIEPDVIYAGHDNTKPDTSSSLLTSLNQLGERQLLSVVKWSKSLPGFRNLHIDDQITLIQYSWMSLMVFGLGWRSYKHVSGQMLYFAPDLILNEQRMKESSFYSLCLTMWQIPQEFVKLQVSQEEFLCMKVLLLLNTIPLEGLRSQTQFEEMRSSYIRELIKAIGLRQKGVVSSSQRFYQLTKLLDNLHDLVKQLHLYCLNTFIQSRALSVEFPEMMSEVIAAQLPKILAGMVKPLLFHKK

AR = target: T2, AR (Homo sapiens, UniProt P10275); assay: AR reporter gene assay in HEK293; assay type: cell-based; details: reporter gene assay, HEK293; agonist dihydrotestosterone 0.3 nM; read-out: AR antagonistic activity (IC50), AR reporter gene
T2 sequence (P10275 1-920): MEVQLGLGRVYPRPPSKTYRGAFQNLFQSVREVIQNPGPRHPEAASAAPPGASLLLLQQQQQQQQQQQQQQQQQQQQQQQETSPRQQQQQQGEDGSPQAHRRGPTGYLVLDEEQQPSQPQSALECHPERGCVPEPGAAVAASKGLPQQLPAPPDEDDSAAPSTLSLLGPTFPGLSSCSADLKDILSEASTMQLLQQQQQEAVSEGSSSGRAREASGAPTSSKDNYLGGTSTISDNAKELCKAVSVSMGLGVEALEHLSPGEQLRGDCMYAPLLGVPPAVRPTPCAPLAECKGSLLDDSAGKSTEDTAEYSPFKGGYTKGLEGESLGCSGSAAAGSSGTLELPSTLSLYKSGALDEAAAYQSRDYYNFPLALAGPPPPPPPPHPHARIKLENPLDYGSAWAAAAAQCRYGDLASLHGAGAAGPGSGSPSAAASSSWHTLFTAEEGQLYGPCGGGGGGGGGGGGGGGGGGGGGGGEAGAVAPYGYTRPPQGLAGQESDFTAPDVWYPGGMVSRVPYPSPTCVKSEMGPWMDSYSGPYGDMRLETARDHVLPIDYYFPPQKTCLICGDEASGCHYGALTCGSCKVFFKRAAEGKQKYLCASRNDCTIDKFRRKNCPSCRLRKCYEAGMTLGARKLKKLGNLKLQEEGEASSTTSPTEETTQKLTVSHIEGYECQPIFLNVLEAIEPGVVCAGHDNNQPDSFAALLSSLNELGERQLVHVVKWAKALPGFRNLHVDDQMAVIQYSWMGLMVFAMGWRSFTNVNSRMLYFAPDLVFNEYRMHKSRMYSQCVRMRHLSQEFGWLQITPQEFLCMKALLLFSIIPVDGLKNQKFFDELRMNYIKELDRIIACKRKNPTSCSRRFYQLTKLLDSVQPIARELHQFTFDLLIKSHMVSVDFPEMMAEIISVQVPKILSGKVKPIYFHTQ

GR = target: T3, GR (Homo sapiens, UniProt P04150); assay: GR reporter gene assay in HEK293; assay type: cell-based; details: reporter gene assay, HEK293; agonist dexamethasone 1 nM; read-out: GR antagonistic activity (IC50)
T3 construct: expressed in transfected cells; host or cells: HEK293
T3 sequence (P04150 1-777): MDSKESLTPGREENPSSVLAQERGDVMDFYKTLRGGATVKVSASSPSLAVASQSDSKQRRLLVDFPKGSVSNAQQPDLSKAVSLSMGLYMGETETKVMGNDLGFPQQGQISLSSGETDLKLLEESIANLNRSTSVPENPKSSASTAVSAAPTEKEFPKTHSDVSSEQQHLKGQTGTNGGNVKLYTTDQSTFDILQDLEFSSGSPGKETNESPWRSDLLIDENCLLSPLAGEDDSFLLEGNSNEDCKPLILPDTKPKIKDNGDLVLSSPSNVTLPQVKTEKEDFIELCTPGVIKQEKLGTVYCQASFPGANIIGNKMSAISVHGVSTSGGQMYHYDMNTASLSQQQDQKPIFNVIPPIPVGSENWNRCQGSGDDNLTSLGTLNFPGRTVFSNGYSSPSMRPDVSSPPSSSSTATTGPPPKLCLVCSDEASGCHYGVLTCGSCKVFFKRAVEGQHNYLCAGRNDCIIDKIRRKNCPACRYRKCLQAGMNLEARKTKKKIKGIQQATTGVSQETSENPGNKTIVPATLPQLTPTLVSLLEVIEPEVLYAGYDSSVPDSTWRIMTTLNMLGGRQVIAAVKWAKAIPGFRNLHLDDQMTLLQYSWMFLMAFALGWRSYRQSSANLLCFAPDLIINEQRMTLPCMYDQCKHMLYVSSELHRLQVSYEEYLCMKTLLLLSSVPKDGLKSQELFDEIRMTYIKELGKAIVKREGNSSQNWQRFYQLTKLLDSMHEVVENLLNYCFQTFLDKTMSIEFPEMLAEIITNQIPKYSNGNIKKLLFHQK

LXRβ = target: T4, LXRβ (Homo sapiens, UniProt P55055); assay: LXRβ reporter gene assay in HEK293; assay type: cell-based; details: read-out: LXRβ antagonistic activity (IC50)
T4 construct: CMX-GAL4N-hLXRβ-LBD; expressed in transfected cells; host or cells: HEK293
T4 sequence (P55055 222-460 limits assumed): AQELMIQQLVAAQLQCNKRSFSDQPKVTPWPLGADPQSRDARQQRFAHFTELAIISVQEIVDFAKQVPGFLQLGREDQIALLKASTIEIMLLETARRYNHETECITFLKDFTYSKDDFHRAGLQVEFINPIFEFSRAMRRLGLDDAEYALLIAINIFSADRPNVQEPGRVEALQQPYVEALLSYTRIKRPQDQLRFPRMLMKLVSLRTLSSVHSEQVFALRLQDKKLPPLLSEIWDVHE

LXRα = target: T5, LXRα (Homo sapiens, UniProt Q13133); assay: LXRα reporter gene assay in HEK293; assay type: cell-based; details: read-out: LXRα antagonistic activity (IC50)
T5 construct: CMX-GAL4N-hLXRα-LBD; expressed in transfected cells; host or cells: HEK293
T5 sequence (Q13133 209-447 limits assumed): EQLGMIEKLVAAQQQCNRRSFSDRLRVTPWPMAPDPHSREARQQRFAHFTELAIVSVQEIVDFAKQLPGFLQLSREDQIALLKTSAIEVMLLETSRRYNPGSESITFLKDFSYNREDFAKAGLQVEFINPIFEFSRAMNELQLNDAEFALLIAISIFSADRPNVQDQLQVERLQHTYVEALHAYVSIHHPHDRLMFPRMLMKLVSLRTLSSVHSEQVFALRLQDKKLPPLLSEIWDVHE

RORβ = target: T6, RORβ (Homo sapiens, UniProt Q92753); details: reporter gene assay, HEK293; read-out: RORβ inverse agonistic activity (IC50); cited from earlier work
T6 construct: expressed in transfected cells; host or cells: HEK293
T6 sequence (Q92753 1-459 isoform Q92753-1): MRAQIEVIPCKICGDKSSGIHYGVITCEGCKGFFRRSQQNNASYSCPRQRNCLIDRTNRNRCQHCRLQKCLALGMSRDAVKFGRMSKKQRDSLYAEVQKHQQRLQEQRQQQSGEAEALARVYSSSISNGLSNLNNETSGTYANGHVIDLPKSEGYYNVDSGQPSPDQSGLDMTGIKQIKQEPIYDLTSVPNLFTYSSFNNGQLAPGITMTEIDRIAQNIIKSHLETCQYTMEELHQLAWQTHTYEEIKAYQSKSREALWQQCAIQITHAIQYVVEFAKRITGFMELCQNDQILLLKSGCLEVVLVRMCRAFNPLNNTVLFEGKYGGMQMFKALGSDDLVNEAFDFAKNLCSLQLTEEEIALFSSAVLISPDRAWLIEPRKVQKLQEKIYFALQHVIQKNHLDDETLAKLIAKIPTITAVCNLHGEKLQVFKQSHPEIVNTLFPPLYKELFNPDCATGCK

RORγ = target: T7, RORγ (Homo sapiens, UniProt P51449); details: reporter gene assay, HEK293; read-out: RORγ inverse agonistic activity (IC50); cited from earlier work
T7 construct: expressed in transfected cells; host or cells: HEK293
T7 sequence (P51449 1-518): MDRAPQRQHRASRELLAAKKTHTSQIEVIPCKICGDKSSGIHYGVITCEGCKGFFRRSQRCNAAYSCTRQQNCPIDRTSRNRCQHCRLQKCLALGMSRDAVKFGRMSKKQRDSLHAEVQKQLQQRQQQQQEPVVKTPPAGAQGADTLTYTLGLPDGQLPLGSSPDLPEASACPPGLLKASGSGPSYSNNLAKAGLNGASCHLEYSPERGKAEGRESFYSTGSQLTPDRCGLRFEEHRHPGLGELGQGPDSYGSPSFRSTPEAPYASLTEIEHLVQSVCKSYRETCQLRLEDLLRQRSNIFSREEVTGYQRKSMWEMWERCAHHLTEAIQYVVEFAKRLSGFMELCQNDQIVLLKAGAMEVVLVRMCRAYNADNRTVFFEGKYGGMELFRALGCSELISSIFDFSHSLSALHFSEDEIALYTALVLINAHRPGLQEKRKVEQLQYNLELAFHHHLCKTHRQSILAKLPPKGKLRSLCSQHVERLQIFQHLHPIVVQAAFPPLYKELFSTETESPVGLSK

RORα = target: T8, RORα (Homo sapiens, UniProt P35398); details: reporter gene assay, HEK293; read-out: RORα inverse agonistic activity (IC50); cited from earlier work
T8 construct: expressed in transfected cells; host or cells: HEK293
T8 sequence (P35398 1-523): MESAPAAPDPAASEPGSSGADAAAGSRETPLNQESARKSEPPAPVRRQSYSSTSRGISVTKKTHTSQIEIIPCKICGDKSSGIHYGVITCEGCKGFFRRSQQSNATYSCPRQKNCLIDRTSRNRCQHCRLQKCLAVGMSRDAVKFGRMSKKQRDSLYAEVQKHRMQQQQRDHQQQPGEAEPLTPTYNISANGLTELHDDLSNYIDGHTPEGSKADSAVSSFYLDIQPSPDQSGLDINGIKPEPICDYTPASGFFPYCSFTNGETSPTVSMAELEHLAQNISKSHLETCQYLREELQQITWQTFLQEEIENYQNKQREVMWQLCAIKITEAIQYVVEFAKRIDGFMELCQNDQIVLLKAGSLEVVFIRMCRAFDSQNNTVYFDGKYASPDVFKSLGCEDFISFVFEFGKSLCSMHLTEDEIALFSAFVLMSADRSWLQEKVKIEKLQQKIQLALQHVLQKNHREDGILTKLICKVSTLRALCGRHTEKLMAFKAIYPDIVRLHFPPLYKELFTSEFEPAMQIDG

SMILES	IC50 (PR) [µM]	IC50 (AR) [µM]	IC50 (GR) [µM]	IC50 (LXRβ) [µM]	IC50 (LXRα) [µM]	IC50 (RORβ) [µM]	IC50 (RORγ) [µM]	IC50 (RORα) [µM]
CCCCn1c(=O)c2ccc(Cl)cc2c2cc(C(O)(C(F)(F)F)C(F)(F)F)ccc21 [Compound 2]	4.3	5.2	10	0.88	9.2	–	–	–
Cc1cc(C(O)(C(F)(F)F)C(F)(F)F)cc2c3ccc(F)cc3c(=O)n(C)c12 [Compound 3]	–	0.3	–	–	–	> 20	> 20	> 20
CCCCn1c(=O)c2ccccc2c2cc(C)ccc21 [Compound 8]	–	11	> 20	16	17	–	17	18
CCCCn1c(=O)c2ccccc2c2cc(CC)ccc21 [Compound 9]	–	19	19	16	17	–	–	–
CCCn1c(=O)c2ccccc2c2cc(C(O)(C(F)(F)F)C(F)(F)F)ccc21 [Compound 15]	–	5.6	17	6.9	12	–	–	11
CCCCCCn1c(=O)c2ccccc2c2cc(C(O)(C(F)(F)F)C(F)(F)F)ccc21 [Compound 16]	–	4	> 20	10	16	–	–	–
CCCCn1c(=O)c2ccc(C)cc2c2cc(C(O)(C(F)(F)F)C(F)(F)F)ccc21 [Compound 36]	3.7	6.4	16	3	12	–	–	–
CCCCn1c(=O)c2ccc(O)cc2c2cc(C(O)(C(F)(F)F)C(F)(F)F)ccc21 [Compound 38]	5.1	> 3	> 20	–	7	–	–	–
Cc1cc(C(O)(C(F)(F)F)C(F)(F)F)cc2c1[nH]c(=O)c1ccccc12 [Compound 40]	–	–	–	–	–	> 20	> 20	> 20
Cc1cc(C(O)(C(F)(F)F)C(F)(F)F)cc2c1[nH]c(=O)c1cc(F)ccc12 [Compound 44]	–	1.7	–	> 20	–	> 20	> 20	> 20
